From ChEMBL document CHEMBL1201862, “PubChem BioAssay data set” (2004)
Activity calls are given as the source filed them. Rule as the data show it, for most assays here: actives have a measured EC50 and inactives only a lower limit.

Key:
[1] = luciferase reporter signal suppression in cells – H4 neuroglioma cells, luminescence, dose response (AID 1990); assay type: functional, cell-based
[2] = Luminescence Cell-Based Dose Response HTS to Identify Inhibitors of 5'UTR Stem-Loop Driven Prion Protein mRNA Translation in H4 Neuroglioblastoma Cells. [Related pubchem assays: 1827 (Project Summary), 1813 (Primary HTS)]; assay type: functional
[3] = alpha-synuclein stem-loop luciferase translation blockers – H4 neuroglioma cells, luminescence, confirmation (AID 1988); assay type: functional, cell-based
[4] = Luminescence Cell-Based Dose Confirmation HTS to Identify Activators of 5'UTR Stem-Loop Driven Alpha-Synuclein mRNA Translation in H4 Neuroglioblastoma Cells. [Related pubchem assays: 1829 (Project Summary), 1814 (Primary HTS)]; assay type: functional
[5] = Luminescence Cell-Based Dose Response HTS to Identify Activators of Luciferase Translation or Activity in H4 […] Cells. [Related pubchem assays: 1829 (Project Summary), 1814 (Primary HTS)]; assay type: functional
H4 = test: Luminescence Cell-Based Dose Response HTS to Identify Activators of 5'UTR Stem-Loop Driven Prion Protein mRNA Translation in H4 Neuroglioblastoma Cells. [Related pubchem assays: 1829 (Project Summary), 1814 (Primary HTS)]; assay type: functional; conditions: Homo sapiens
[6] = viability of PTEN-deleted HCT116 cells – cell-based, HCT116 PTEN knockout, dose response (AID 1047); assay type: functional;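 also: HCT116 colon tumor cells with PTEN knocked out; cells exposed to compound for 60 hours before readout; potency for loss of cell viability measured by luminescence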
[7] = viability of HCT116 lacking mutant beta-catenin – cell-based, human colon tumor, dose response (AID 1045); assay type: functional;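 also: HCT116 colon tumor cells with beta catenin knocked out; cells exposed to compound for 60 hours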
[8] = target: T1, Replicative DNA helicase DnaB (Mycobacterium tuberculosis, UniProt P9WMR3); test: DnaB intein splicing inhibitors, dose response, biochemical, cell-free fluorescence (AID 449749); assay type: functional
T1 sequence (P9WMR3 whole entry): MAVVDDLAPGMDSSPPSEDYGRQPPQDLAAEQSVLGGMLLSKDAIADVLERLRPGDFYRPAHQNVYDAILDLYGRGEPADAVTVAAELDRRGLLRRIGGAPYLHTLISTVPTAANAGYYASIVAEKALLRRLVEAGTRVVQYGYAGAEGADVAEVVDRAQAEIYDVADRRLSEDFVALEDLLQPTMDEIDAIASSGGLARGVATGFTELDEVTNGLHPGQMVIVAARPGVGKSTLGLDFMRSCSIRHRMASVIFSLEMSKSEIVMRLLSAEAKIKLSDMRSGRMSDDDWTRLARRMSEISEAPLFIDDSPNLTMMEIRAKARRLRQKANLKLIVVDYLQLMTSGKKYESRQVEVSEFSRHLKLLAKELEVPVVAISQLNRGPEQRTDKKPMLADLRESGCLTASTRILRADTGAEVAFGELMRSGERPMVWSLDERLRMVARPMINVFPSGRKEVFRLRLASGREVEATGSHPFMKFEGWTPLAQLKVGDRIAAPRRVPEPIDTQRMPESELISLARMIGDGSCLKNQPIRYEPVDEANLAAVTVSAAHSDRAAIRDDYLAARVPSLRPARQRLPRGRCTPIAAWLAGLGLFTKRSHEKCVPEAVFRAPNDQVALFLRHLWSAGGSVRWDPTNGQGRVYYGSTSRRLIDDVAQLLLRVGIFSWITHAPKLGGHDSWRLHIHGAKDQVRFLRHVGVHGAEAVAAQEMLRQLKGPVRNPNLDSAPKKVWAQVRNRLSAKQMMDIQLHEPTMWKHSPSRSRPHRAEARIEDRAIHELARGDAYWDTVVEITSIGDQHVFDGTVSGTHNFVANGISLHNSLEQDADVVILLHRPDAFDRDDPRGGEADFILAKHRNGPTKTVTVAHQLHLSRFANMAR

Protein RecA = target: T2, Protein RecA (Mycobacterium tuberculosis, UniProt P9WHJ3); test: Fluorescence Cell-Free Homogeneous Dose Retest to Identify Inhibitors of RecA-Intein Splicing Activity. [Related pubchem assays (depositor defined):AID2097, AID2223, AID489010, AID492950]; assay type: functional
T2 sequence (P9WHJ3 whole entry): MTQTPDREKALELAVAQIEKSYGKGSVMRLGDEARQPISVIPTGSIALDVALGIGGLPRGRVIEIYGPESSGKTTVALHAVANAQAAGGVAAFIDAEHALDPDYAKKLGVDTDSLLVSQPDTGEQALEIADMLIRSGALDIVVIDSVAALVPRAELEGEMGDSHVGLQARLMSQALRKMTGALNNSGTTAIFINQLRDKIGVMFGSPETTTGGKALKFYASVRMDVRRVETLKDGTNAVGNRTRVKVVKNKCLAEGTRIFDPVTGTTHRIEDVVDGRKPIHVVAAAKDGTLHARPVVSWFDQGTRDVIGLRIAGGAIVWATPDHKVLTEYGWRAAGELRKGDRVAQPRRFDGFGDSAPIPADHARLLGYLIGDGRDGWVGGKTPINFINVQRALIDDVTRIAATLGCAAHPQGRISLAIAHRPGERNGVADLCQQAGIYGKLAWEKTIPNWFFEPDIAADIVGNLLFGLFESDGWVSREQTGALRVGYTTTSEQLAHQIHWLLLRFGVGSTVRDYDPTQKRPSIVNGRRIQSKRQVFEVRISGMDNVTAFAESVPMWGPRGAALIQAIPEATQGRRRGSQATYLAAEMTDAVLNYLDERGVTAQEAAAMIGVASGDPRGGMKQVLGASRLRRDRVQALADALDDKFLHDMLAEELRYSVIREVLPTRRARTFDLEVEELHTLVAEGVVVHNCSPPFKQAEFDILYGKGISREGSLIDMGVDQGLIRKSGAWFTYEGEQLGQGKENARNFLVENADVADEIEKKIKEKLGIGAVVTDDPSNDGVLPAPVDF

[9] = target: T3, Heat shock factor protein 1 (Mus musculus, UniProt P38532); test: enhancement of HSF1-driven luciferase signal – cell-based, NIH3T3, luminescence, dose retest, confirmation (AID 435004); assay type: functional;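 also: stress induced by proteasome inhibitor MG132 added 30 min after compound; luciferase reporter driven by HSF1 response element in NIH3T3 cells; actives raise luminescence as potentiators of the MG132 stress response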
T3 sequence (P38532 whole entry): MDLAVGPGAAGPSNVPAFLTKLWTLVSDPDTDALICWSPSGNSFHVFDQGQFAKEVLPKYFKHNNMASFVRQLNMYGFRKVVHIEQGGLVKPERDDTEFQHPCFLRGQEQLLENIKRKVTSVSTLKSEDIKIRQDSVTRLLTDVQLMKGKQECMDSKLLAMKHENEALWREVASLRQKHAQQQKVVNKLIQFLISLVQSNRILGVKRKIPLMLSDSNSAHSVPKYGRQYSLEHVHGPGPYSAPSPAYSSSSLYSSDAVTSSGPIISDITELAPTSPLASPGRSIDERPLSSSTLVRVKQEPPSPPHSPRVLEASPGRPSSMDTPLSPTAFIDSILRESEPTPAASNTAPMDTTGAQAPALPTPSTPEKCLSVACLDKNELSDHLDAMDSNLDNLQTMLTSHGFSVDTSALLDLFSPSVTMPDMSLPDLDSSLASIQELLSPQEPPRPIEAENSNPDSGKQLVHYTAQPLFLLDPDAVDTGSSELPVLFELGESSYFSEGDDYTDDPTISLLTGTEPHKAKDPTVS

[10] = tested on: Streptococcus sp. 'group A'; test: Streptococcus pyogenes SK(-)GAS viability under kanamycin – luminescence, BacTiterGlo, confirmation, counter-screen for streptokinase expression inhibitor project, dose response (AID 1900); assay type: functional, organism-based
Streptokinase A = target: T4, Streptokinase A (Streptococcus pyogenes serotype M1, UniProt P10520); test: viability-normalized secreted streptokinase activity reduction – plasminogen activation absorbance, OD405, dose response (AID 1914); assay type: functional, Streptococcus pyogenes M1 GAS;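 also: secreted streptokinase activity via plasminogen activation per viability signal from cell pellet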
T4 sequence (P10520 whole entry): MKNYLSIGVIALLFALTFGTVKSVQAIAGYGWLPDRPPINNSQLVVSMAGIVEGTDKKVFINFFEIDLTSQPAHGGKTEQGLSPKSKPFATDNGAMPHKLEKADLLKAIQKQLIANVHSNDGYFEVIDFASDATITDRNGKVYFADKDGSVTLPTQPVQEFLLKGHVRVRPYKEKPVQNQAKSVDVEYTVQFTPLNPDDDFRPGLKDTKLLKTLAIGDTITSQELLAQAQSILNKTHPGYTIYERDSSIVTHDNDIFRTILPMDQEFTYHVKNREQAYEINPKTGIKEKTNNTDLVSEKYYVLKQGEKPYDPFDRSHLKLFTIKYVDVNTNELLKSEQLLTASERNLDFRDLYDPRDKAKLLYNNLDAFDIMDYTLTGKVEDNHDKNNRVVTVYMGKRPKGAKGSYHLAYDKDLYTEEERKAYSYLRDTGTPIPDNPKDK

Streptococcus = test: GAS UMAA2166 growth inhibition – luminescence, BacTiterGlo, counter-screen for streptokinase expression inhibitor project, dose response (AID 1915); assay type: functional, organism-based;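 also: potency for reduction of bacterial viability or growth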

CCOc1cc(NC(=O)c2ccccc2C)c(OCC)cc1NC(=O)C1=Cc2ccccc2OC1
EC50 [1]: > 120 µM (not active) | EC50 [2]: 18.7 µM (active) | EC50 [3]: 9.61 µM (active)

COc1ccc2oc(=O)c(-c3nnc(NCc4ccco4)s3)cc2c1
EC50 [4]: 23.1 µM (active) | EC50 [5]: 78.7 µM (active) | EC50 (H4): 1.91 µM (active)

COc1ccc(F)cc1CN1CCN(c2ncnc3scc(-c4ccccc4)c23)CC1
EC50 [1]: 15.8 µM (active) | EC50 [2]: 23.9 µM (active) | EC50 [3]: 15.6 µM (active)

CCOc1ccc(NC(c2ccccn2)c2oc(CO)cc(=O)c2O)cc1 (centres undefined)
EC50 [5]: 0.175 µM (active) | EC50 (H4): 22.2 µM (active)

C[C@@H]1OC(Nc2ccc(N=Nc3ccccc3)cc2)[C@H](O)[C@H](O)[C@H]1O (some centres undefined)
EC50 [4]: 16.9 µM (active) | EC50 [5]: 54.8 µM (active) | EC50 (H4): 11.1 µM (active)

Cc1ccc(S(=O)(=O)N2CCOC23CCN(C(=O)c2ccc(Cl)cc2Cl)CC3)cc1
EC50 [1]: > 120 µM (not active) | EC50 [2]: 17.7 µM (active) | EC50 [3]: 13.8 µM (active)

O=C(Nc1ccc(NC(=O)c2sc3ccccc3c2Cl)cc1)c1ccco1
EC50 [6]: 9.27 µM (active) | EC50 [7]: 9.19 µM (active)

COc1ccccc1C(=O)Nc1nnc(C)s1
EC50 [4]: 0.108 µM (active) | EC50 [5]: 4.92 µM (active) | EC50 (H4): 26.3 µM (active)

CC1CCc2c(c3ccccc3n2C(=O)CCl)C1 (centres undefined)
AC50 [8]: > 380 µM (inactive) | EC50 (Protein RecA): 0.751 µM (active)

O=S(=O)(Nc1ccc(-c2nnc3n2CCCCC3)cc1)c1ccc2nc(O)oc2c1
EC50 [9]: > 260 µM (inactive)

COC(=O)c1nnn(CC(=O)NC(=O)Nc2ccc(F)cc2)c1C(=O)OC
EC50 [9]: > 260 µM (inactive)

CSc1ccc(/C=N\Nc2nncn2N)cc1
EC50 [9]: 141 µM (active)

Cc1cccc2cc3c(nc12)S/C(=N/CC1CCCO1)N(Cc1ccco1)C3 (centres undefined)
EC50 [9]: 44.6 µM (active)

Cc1n[nH]c(O)c1/C=N/Cc1cccs1
EC50 [9]: > 260 µM (inactive)

CCCCCC(=O)Cc1cc(O)cc2c1C(=O)Oc1cc(O)c(C(=O)O)c(CCCCC)c1O2 [PHYSODIC ACID]
EC50 [10]: 2.36 µM (active) | EC50 (Streptokinase A): 15.9 µM (active) | EC50 (Streptococcus): > 150 µM (not active) | AC50 [8]: 2.05 µM (active) | EC50 (Protein RecA): 3.23 µM (active)
